Laboratory results taken from patent publication US7241793B2, “Phenyloxyalkanonic acid derivatives as hPPAR activators” (SmithKline Beecham Corporation, priority 2002, dated 2007).

Row | melting point [°C] | Structure (SMILES)
1 | 90 to 100 | Cc1cc(CN(Cc2ccsc2)c2sc(-c3ccc(C(F)(F)F)cc3)nc2C)cc(C)c1OC(C)(C)C(=O)O [Example 2, 2-[2,6-Dimethyl-4-({[4-methyl-2-(4-trifluoromethyl-phenyl)-thiazol-5-yl]-thiophen-3-ylmethyl-amino}-methyl)-phenoxy]-2-methyl-propionic acid]
2 | 158 | Cc1cc(CN(C)c2cc(-c3ccc(Cl)cc3)nn2C)cc(C)c1OC(C)(C)C(=O)O [Example 6, 2-[4-({[5-(4-Chloro-phenyl)-2-methyl-2H-pyrazol-3-yl]-methyl-amino}-methyl)-2,6-dimethyl-phenoxy]-2-methyl-propionic acid]
3 | > 90 | Cc1cc(CN(Cc2ccc(F)cc2)c2cc(-c3ccc(C(F)(F)F)cc3)nn2C)cc(C)c1OC(C)(C)C(=O)O [Example 14, 2-[4-({(4-Fluoro-benzyl)-[2-methyl-5-(4-trifluoromethyl-phenyl)-2H-pyrazol-3-yl]-amino}-methyl)-2,6-dimethyl-phenoxy]-2-methyl-propionic acid]
4 | 100 | Cc1cc(CN(Cc2cccs2)c2sc(-c3ccc(C(F)(F)F)cc3)nc2C)ccc1OC(C)(C)C(=O)O [Example 91, 2-Methyl-2-(2-methyl-4-{([4-methyl-2-(4-trifluoromethylphenyl)thiazol-5-yl-]thiophen-2-ylmethylamino)methyl}phenoxy)propionic acid]
5 | 80 | Cc1cc(CN(Cc2ccco2)c2sc(-c3ccc(C(F)(F)F)cc3)nc2C)ccc1OC(C)(C)C(=O)O [Example 93, 2-Methyl-2-(2-methyl-4-{([4-methyl-2-(4-trifluoromethylphenyl)thiazol-5-yl]furan-2-ylmethylamino)methyl}phenoxy)propionic acid]
